Literature values in patent publication US11192954B2, “Compounds and methods for the treatment of TROP2 positive diseases” (BIO-THERA SOLUTIONS, LTD., priority 2017, dated 2021).

Experiments:
[1] = system: multiple cancer cell lines; details: cited from earlier work
[2] = system: Lewis lung carcinoma and B-16 melanocarcinoma solid murine tumor models; details: mouse, in vivo; cited from earlier work

Row | SMILES | Activity against multiple cancer cell lines [1] | Activity against murine tumors [2]
1 | COc1cc2cc(c1Cl)N(C)C(=O)C[C@H](OC(=O)C(C)C)[C@]1(C)O[C@@H]1[C@H](C)[C@@H]1C[C@@](O)(NC(=O)O1)[C@H](OC)/C=C/C=C(\C)C2 [Ansamitocin P3] | effective | 
2 | COc1cc2cc(c1Cl)N(C)C(=O)C[C@H](OC(=O)[C@H](C)N(C)C(C)=O)[C@]1(C)O[C@H]1[C@H](C)[C@@H]1C[C@@](O)(NC(=O)O1)[C@H](OC)/C=C/C=C(\C)C2 [Maytansine] |  | significant inhibitory activity
